In patent publication US7026281B1, “Antagonistic analogs of GH-RH inhibiting IGF-I and -II” (The Administrators of the Tulane Educational Fund, priority 1998, dated 2006):
Marks after values point to notes of the source that are not given here. Square brackets hold non-standard residues; d marks the D form. Peptide text beside a SMILES is read from it. * marks the point of attachment. Phe(4-Cl) = N[C@@H](Cc1ccc(Cl)cc1)C(=O)O; hArg = N=C(N)NCCCC[C@H](N)C(=O)O; Nle = CCCC[C@H](N)C(=O)O; Abu = CC[C@H](N)C(=O)O; PhAc = O=C(Cc1ccccc1)*

Columns and labels:
[1] = system: hGH-RH(1–29)NH2 induced GH release; test: Inhibition of GH release in superfused rat pituitary system; assay type: cell-based; conditions: antagonist 30 nM; for Inhibition of GH release (%) 30 min: 1 nM hGH-RH(1–29)NH2 30 min later; for Inhibition of GH release (%) 60 min: 1 nM hGH-RH(1–29)NH2 60 min later; for Inhibition of GH release (%) 90 min: 1 nM hGH-RH(1–29)NH2 90 min later; for Inhibition of GH release (%) 120 min: 1 nM hGH-RH(1–29)NH2 120 min later; for Inhibition of GH release (%) 0 min: 1 nM hGH-RH(1–29)NH2 at 0 min
Procedure, shortened: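 Superfused rat pituitary cells preincubated 9 min with peptide, then challenged for 3 min with 1 nM hGH-RH(1–29)NH2 at 0, 30, 60, 90 and 120 min. Rat GH measured by double-antibody RIA; net integral GH responses expressed as percent of the original 1 nM GH-RH-induced response.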

[2] = biological target: T1, rat pituitary GH-RH receptors (Rattus norvegicus, UniProt Q02644); test: GH-RH radioreceptor binding assay, rat anterior pituitary membrane homogenates; conditions: for Ki: competition with [His1,125I-Tyr10,Nle27]hGH-RH(1–32)NH2; for R.A. (relative affinity compared to Standard antagonist): ratio of Ki values
T1 construct: from tissue; host or cells: anterior pituitary of male Sprague-Dawley rats, crude membrane homogenates
T1 sequence (Q02644 23-464): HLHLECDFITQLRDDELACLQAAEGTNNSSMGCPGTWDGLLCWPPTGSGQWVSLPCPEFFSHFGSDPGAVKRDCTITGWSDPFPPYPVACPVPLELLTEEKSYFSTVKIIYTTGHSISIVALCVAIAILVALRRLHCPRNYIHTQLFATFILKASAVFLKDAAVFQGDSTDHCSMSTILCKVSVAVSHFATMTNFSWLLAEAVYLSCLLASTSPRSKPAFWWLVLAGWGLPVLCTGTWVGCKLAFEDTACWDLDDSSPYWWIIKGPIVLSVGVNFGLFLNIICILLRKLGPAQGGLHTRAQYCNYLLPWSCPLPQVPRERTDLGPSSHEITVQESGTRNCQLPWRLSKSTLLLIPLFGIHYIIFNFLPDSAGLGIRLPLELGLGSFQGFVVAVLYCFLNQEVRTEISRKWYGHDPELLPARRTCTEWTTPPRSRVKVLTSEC
Procedure, shortened: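 Antagonists competed with [His^1,^125I-Tyr^10,Nle^27]hGH-RH(1–32)NH2 for binding to crude anterior pituitary membranes from male Sprague-Dawley rats, with γ-counting of the pellet. Ki came from Munson–Rodbard analysis. Relative affinity is the Ki of the test antagonist divided by the Ki of standard [Ac-Tyr^1,D-Arg^2]hGH-RH(1–29)NH2.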

[3] = system: GH release stimulated by hGH-RH(1–29)NH2; test: In vivo inhibition of serum GH response in rats; parameters: species or system rat; conditions: for Inhibition of the GH release stimulated by hGH-RH(1–29)NH2 (in words): 80 μg/kg i.v., rats
Procedure, shortened: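 Male Sprague-Dawley rats (200–250 g) under Nembutal received antagonist at 80 μg/kg i.v., then GH-RH(1–29)NH2 at 3 μg/kg after 5, 15, 30 or 60 min; controls received vehicle (5.5% mannitol). GH was measured by RIA before antagonist and 5 min after GH-RH, and inhibition was calculated as […].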

[4] = system: HT-29 human colon cancers; test: HT-29 human colon cancer xenografts in nude mice; assay type: in vivo; conditions: 20 μg daily sc., 6 weeks; for Final tumor volume (mm^3) / Tumor weight: nude mice
Protocol: HT-29 human colon cancers were transplanted sc. into male nude mice. 19 days after transplantation, the mice were divided into groups of 10 animals each, and the treatment was started. The mice received single daily injections of various GH-RH antagonists sc. at 20 μg dose per day for 6 weeks. Tumors were measured regularly, and tumor volume was calculated. The mice were sacrificed at the end of experiment and tumor weights were measured.

[5] = system: Estrogen independent MXT mouse mammary tumors; test: MXT mouse mammary tumors in BDF mice; assay type: in vivo; conditions: 20 μg per day
Protocol: Estrogen independent MXT tumors were transplanted sc. to female BDF mice. One day after transplantation, the mice were divided into groups of 10 animals each, and the treatment was started. The mice in groups 1, 2, 3, and 4 received single injections daily of various GH-RH antagonists sc. at 20 μg dose per day for 18 days. In groups 5 and 6, the peptides were administered by Alzet osmotic pumps releasing a daily amount of 20 μg peptide. Tumors were measured regularly, and tumor volume was calculated. The mice were sacrificed on day 18 and tumor weights were measured.

[6] = system: MDA-MB-468 human breast cancer xenografts; test: MDA-MB-468 human breast cancer xenografts in nude mice; assay type: in vivo; conditions: 20 μg daily s.c., 5 weeks
Protocol: Nude mice bearing MDA-MB-468 hormone-independent human breast cancer xenografts were divided into groups of 10 animals each. The treated groups received single daily s.c. injections of 20 μg of GH-RH antagonists. One group was treated with Peptide 1, a second group was treated with MZ-5-156 for comparison. The control group was injected with the vehicle solvent. The treatment was continued for 5 weeks. Tumors were measured once a week and tumor volume was calculated. The mice were sacrificed at the end of experiment and tumor weights were measured.

[7] = system: PC-3 human prostate cancer xenografts; test: PC-3 human prostate cancer xenografts in nude mice; assay type: in vivo; conditions: 20 μg daily s.c., 21 days
Protocol: Male nude mice were implanted s.c. with 3 mm^3 pieces of PC-3 human hormone-independent prostate cancer tissue into both flanks. When tumors reached a volume of approx. 40–50 mm^3 the mice were divided into 3 experimental groups. The first and second groups were treated with peptides Peptide 3 and MZ-5-156, respectively, in single daily s.c. injections of 20 μg for 21 days, while the third group served as control. Tumor volumes were measured at weekly intervals, tumor weights were measured at the end of experiment.

[8] = system: mammary (MDA-MB-468, ZR-75-1), prostatic (PC-3 and DU-145), and pancreatic (MiaPaCa-2, SW-1990 and Capan-2) cancer cell lines; conditions: MDA-MB-468, ZR-75-1, PC-3, DU-145, MiaPaCa-2, SW-1990, Capan-2; cited from earlier work
IGF-II = conditions: same cancer cell lines in vitro; cited from earlier work
[9] = antagonist 80 μg/kg i.v. 5 min before GH-RH
[10] = antagonist 80 μg/kg i.v. 15 min before GH-RH
[11] = antagonist 80 μg/kg i.v. 15 min before GH-RH 3 μg/kg
[12] = antagonist 80 μg/kg i.v. 30 min before GH-RH
[13] = antagonist 80 μg/kg i.v. 30 min before GH-RH 3 μg/kg
[14] = antagonist 80 μg/kg i.v. 60 min before GH-RH
[15] = antagonist 80 μg/kg i.v. 60 min before GH-RH 3 μg/kg
[16] = rGH=GHblood1/GHblood0, antagonist 80 μg/kg i.v. 5 min before GH-RH 3 μg/kg

Ki [2] | R.A. (relative affinity compared to Standard antagonist) [2] | Compound | Inhibition of GH release (%) 30 min [1] | Inhibition of GH release (%) 60 min [1] | Inhibition of GH release (%) 90 min [1] | Inhibition of GH release (%) 120 min [1] | Inhibition of GH release (%) 0 min [1] | Inhibition of the GH release stimulated by hGH-RH(1–29)NH2 (in words) [3] | Relative inhibition % of GH response [3, 9] | Relative inhibition % of GH response [3, 10] | GH response mean ± S.E.M. [3, 11] | Relative inhibition % of GH response [3, 12] | GH response mean ± S.E.M. [3, 13] | Relative inhibition % of GH response [3, 14] | GH response mean ± S.E.M. [3, 15] | GH response mean ± S.E.M. [3, 16] | Inhibitory effect on HT-29 human colon cancers (in words) [4] | Final tumor volume (mm^3) [4] | Tumor weight [4] | Rate of proliferation of cancer cell lines in vitro [8] | other results
0.071 nM | 41 | CCCC[C@H](NC(=O)[C@@H](NC(=O)[C@H](CC(=O)O)NC(=O)[C@H](CCC(N)=O)NC(=O)[C@H](CC(C)C)NC(=O)[C@H](CC(C)C)NC(=O)[C@H](CCCCN)NC(=O)[C@H](CCCNC(=N)N)NC(=O)[C@H](C)NC(=O)[C@H](CO)NC(=O)[C@H](CC(C)C)NC(=O)[C@H](CCC(N)=O)NC(=O)[C@H](CC)NC(=O)[C@H](CC(C)C)NC(=O)[C@@H](NC(=O)[C@H](CCCCN)NC(=O)[C@H](CCCNC(=N)N)NC(=O)[C@H](Cc1ccc(O)cc1)NC(=O)[C@H](CO)NC(=O)[C@H](CC(N)=O)NC(=O)[C@@H](NC(=O)[C@H](Cc1ccc(Cl)cc1)NC(=O)[C@@H](NC(=O)[C@H](C)NC(=O)[C@H](CC(=O)O)NC(=O)[C@@H](CCCNC(=N)N)NC(=O)[C@H](Cc1ccc(O)cc1)NC(=O)Cc1ccccc1)[C@@H](C)CC)[C@@H](C)O)C(C)C)[C@@H](C)CC)C(=O)N[C@H](CCCNC(=N)N)C(=O)N[C@@H](CCCCNC(=N)N)C(N)=O [Peptide 11, [PhAc^0, D-Arg^2, Phe(pCl)^6, Abu^15, Nle^27, D-Arg^28, Har^29]hGH-RH(1–29)NH2] (PhAc-Y[dR]DAI[Phe(4-Cl)]TNSYRKVL[Abu]QLSARKLLQDI[Nle][dR][hArg]-NH2) | 89% | 80% | 56% | 42% | 96% | strong and long-lasting inhibition | 84% | 50% | 13.64 ± 1.41 | 40% | 16.04 ± 4.36 | 38% | 16.61 ± 6.02 | 5.15 ± 1.11 | only little nonsignificant effect | 1663 ± 610 mm^3 | 1849 ± 681 mg |  | 
0.058 nM | 51 | CCCC[C@H](NC(=O)[C@@H](NC(=O)[C@H](CC(=O)O)NC(=O)[C@H](CCC(N)=O)NC(=O)[C@H](CC(C)C)NC(=O)[C@H](CC(C)C)NC(=O)[C@H](CCCCN)NC(=O)[C@H](CCCNC(=N)N)NC(=O)[C@H](C)NC(=O)[C@H](CO)NC(=O)[C@H](CC(C)C)NC(=O)[C@H](CCC(N)=O)NC(=O)[C@H](CC)NC(=O)[C@H](CC(C)C)NC(=O)[C@@H](NC(=O)[C@H](CCCCN)NC(=O)[C@H](CCCNC(=N)N)NC(=O)[C@H](Cc1ccc(O)cc1)NC(=O)[C@H](CCCNC(=N)N)NC(=O)[C@H](CC(N)=O)NC(=O)[C@@H](NC(=O)[C@H](Cc1ccc(Cl)cc1)NC(=O)[C@@H](NC(=O)[C@H](C)NC(=O)[C@H](CC(=O)O)NC(=O)[C@@H](CCCNC(=N)N)NC(=O)[C@H](Cc1ccc(O)cc1)NC(=O)Cc1ccccc1)[C@@H](C)CC)[C@@H](C)O)C(C)C)[C@@H](C)CC)C(=O)N[C@@H](CO)C(=O)N[C@H](CCCNC(=N)N)C(N)=O [Peptide 9, [PhAc^0, D-Arg^2, Phe(pCl)^6, Arg^9, Abu^15, Nle^27, D-Arg^29]hGH-RH(1–29)NH2] (PhAc-Y[dR]DAI[Phe(4-Cl)]TNRYRKVL[Abu]QLSARKLLQDI[Nle]S[dR]-NH2) | 87% | 79% | 72% | 59% | 91% | strong and long-lasting inhibition | 75% | 59% | 3.85 ± 0.50 | 67% | 3.34 ± 0.30 | 10% | 7.32 ± 1.16 | 2.75 ± 0.75 | smaller but still significant inhibition | 1194 ± 506* mm^3 | 1383 ± 576 mg |  | 
 |  | [PhAc^0, D-Arg^2, Abu^15, Nle^27]hGH-RH(1–28) Agm [MZ-5-156, reference compound] |  |  |  |  |  |  |  |  |  |  |  |  |  |  | equally strong inhibitory effect | 908 ± 195* mm^3 | 1012 ± 174 mg | significantly inhibited | Inhibitory effect on MXT mouse mammary cancers (in words) ([5]; 18 days): significant inhibition of tumor growth; Tumor volume (mm^3) On day 14 ([5]; single daily sc. injections): 2717 ± 773 mm^3; Tumor volume (mm^3) On day 18 ([5]; single daily sc. injections): 5368 ± 408* mm^3; Tumor weights ([5]; single daily sc. injections, day 18): 4885 ± 480 mg; Number of surviving mice ([5]; single daily sc. injections, groups of 10): 4; Final tumor volume (mm^3) ([6]; nude mice): 104.4 ± 32.2** mm^3; Tumor weight ([6]; nude mice): 77.7 ± 31.7 mg; Number of regressed tumors ([6]; groups of 10): 3; Inhibition in tumor volume [7]: 52%; Inhibition in tumor weight [7]: 46%; Final tumor volume (mm^3) ([7]; nude mice): 148.9 ± 41 mm^3; Tumor weight ([7]; nude mice): 104.3 ± 27.2 mg; Expression of IGF-II mRNA in the cells and concentration of IGF-II secreted into the culture medium (IGF-II): reduced
 |  | [Ibu^0, Tyr^1, D-Arg^2, Abu^15, Nle^27]hGH-RH(1–28) Agm [MZ-4-71, reference compound] |  |  |  |  |  |  |  |  |  |  |  |  |  |  | only little nonsignificant effect | 1953 ± 400 mm^3 | 2189 ± 458 mg | significantly inhibited | Expression of IGF-II mRNA in the cells and concentration of IGF-II secreted into the culture medium (IGF-II): reduced
